Test results from US20130065883A1 (Centro Nacional de Investigaceiones Oncologicas (CNIO), priority 2010, published 2013).
Read-outs that look alike come from different tables or passages of the source.

Experiments:
[1] = system: H1299 cells overexpressing Pim1 (H1299Pim1); test: BAD S112 phosphorylation inhibition assay (In Cell ELISA); format: cell-based; settings: Homo sapiens, NCI-H1299, inhibition of Bad-phosphorylation, read-out: Cell assay BAD_P H1299 PIM1
[2] = system: tumor cell lines; test: Combination assay (MTT in vitro cell proliferation, combination index); format: cell-based; settings: for EC50: read-out: Pim Inh EC50
[3] = Metabolic stability assay; format: in vitro ADME; settings: percentage metabolic stability in human liver microsomes
Method: The metabolic stability assay was performed in Wuxi. 1 μM, 15 min. The kinase selectivity testing was performed in ProQinase GmbH, Germany.

[4] = system: panel of 24 kinases; test: Kinase selectivity testing (percentage inhibition of 24 kinases at 1 μM); format: biochemical; settings: proquinase; for % inhibiton at 1 uM CK1 Alpha 1: CK1 Alpha 1, 1 uM; for % inhibiton at 1 uM FGFR1: FGFR1, 1 uM; for % inhibiton at 1 uM JAK2: JAK2, 1 uM; for % inhibiton at 1 uM MEK1: MEK1, 1 uM; for % inhibiton at 1 uM RPS5 KA1: RPS5 KA1, 1 uM; for % inhibiton at 1 uM SGK1: SGK1, 1 uM; for % inhibiton at 1 uM AKT2: AKT2, 1 uM; for % inhibiton at 1 uM CHK1: CHK1, 1 uM; for % inhibiton at 1 uM PAK1: PAK1, 1 uM; for % inhibiton at 1 uM PDK1: PDK1, 1 uM; for % inhibiton at 1 uM PLK1: PLK1, 1 uM
[5] = target: T1, PIM-1 (Homo sapiens, UniProt P11309); test: PIM-1 biochemical assay (ADP Hunter); settings: read-out: PIM1 IC50;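 also: recombinant human PIM-1 carrying a C-terminal His tag, kinase activity quantified via ADP formed as the direct enzymatic product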
T1 construct: histidine tag (C); made in house
T1 sequence (P11309 whole entry): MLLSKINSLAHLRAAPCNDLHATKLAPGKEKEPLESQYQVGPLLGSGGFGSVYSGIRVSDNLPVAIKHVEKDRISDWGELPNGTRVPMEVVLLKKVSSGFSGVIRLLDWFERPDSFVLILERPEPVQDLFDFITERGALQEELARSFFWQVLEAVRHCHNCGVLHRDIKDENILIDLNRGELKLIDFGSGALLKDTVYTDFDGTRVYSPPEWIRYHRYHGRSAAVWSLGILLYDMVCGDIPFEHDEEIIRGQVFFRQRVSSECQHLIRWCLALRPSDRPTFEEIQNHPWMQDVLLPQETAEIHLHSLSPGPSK

[6] = target: T2, PIM-2 (Homo sapiens, UniProt Q9P1W9); test: PIM-2 biochemical assay (ADP Hunter); settings: semi-quantitative class; read-out: PIM2 IC50;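 also: recombinant N-terminally His-tagged human enzyme, kinase activity quantified by detection of ADP formed as the direct reaction product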
T2 construct: histidine tag (N); made in house
T2 sequence (Q9P1W9 whole entry): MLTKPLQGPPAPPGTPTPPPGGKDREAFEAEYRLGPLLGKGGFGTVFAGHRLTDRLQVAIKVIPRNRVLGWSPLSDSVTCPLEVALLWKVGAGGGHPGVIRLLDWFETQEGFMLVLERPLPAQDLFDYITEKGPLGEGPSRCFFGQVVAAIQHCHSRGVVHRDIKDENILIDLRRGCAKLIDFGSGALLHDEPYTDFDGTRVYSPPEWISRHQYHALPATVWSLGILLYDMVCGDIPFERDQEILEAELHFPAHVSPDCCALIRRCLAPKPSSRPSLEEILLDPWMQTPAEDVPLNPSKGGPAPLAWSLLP

[7] = target: T3, PIM-3 (Homo sapiens, UniProt Q86V86); test: PIM-3 biochemical assay (ADP Hunter); settings: read-out: PIM3 IC50;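 also: kinase activity read out as the quantity of ADP generated by the enzyme reaction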
T3 construct: purchased Millipore 14-738

[8] = target: T4, FLT3 (Homo sapiens, UniProt P36888); test: FLT3 biochemical assay (ADP Hunter);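 also: FLT3 enzymatic activity quantified through the ADP produced by the kinase reaction, detected with an ADP Hunter readout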
T4 sequence (P36888 27-993): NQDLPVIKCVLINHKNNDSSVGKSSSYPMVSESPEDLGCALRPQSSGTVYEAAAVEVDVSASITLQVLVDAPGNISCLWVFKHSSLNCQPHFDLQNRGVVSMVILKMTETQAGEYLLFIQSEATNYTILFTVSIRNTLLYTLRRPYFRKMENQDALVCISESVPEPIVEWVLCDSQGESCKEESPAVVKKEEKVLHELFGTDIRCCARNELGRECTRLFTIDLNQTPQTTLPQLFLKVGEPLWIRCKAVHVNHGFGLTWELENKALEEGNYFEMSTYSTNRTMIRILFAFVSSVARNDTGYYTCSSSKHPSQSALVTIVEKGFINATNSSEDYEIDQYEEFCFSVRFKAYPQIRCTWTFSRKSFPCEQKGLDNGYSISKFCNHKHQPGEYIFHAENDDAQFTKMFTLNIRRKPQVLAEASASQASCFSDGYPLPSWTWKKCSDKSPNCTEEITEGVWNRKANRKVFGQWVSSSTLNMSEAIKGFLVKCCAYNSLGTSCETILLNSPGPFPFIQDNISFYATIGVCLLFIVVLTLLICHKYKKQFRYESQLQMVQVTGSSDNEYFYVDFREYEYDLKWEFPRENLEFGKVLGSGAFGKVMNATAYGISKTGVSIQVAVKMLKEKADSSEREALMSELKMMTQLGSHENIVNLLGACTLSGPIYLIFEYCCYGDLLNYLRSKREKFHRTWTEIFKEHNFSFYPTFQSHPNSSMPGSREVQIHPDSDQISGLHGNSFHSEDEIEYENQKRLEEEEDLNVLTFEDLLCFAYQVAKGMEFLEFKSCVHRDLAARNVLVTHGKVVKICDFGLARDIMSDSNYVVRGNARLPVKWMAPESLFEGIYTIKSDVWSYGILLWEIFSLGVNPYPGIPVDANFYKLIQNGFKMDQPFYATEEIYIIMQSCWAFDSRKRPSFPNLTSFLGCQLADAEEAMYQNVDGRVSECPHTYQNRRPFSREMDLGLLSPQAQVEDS

[9] = actual IC50 value in parentheses

SMILES | EC50 [1] [nM] | Stability in HLM [3] [%] | % inhibiton at 1 uM B_RAF V600E [4] [%] | % inhibiton at 1 uM CK1 Alpha 1 [4] [%] | % inhibiton at 1 uM DYRK 1A [4] [%] | % inhibiton at 1 uM EGF_R [4] [%] | % inhibiton at 1 uM FAK [4] [%] | % inhibiton at 1 uM FGFR1 [4] [%] | % inhibiton at 1 uM IGF1_R [4] [%] | % inhibiton at 1 uM IKK BETA [4] [%] | % inhibiton at 1 uM INS_R [4] [%] | % inhibiton at 1 uM JAK2 [4] [%] | % inhibiton at 1 uM KIT [4] [%] | % inhibiton at 1 uM MEK1 [4] [%] | % inhibiton at 1 uM MET [4] [%] | % inhibiton at 1 uM PDGFR Alpha [4] [%] | % inhibiton at 1 uM RPS5 KA1 [4] [%] | % inhibiton at 1 uM SGK1 [4] [%] | % inhibiton at 1 uM AKT2 [4] [%] | % inhibiton at 1 uM CDK8 CYCC [4] [%] | also measured
FC(F)(F)c1cccc(-n2nnc3cc(Cl)c(NCC4CCNCC4)nc32)c1 [2-83] | 458 | 112.7 | 11 | 3 | 7 | 8 | 16 | 39 | 13 | 0 | 6 | 1 | 26 | 2 | 0 | 14 | 36 | 6 | 0 | 14 | IC50 [5, 9]: 21 nM; IC50 ([5]; semi-quantitative class): < 100 nM; IC50 [6]: > 1000 nM; IC50 [7, 9]: 6 nM; IC50 ([7]; semi-quantitative class): < 100 nM; IC50 [8, 9]: 94 nM; IC50 ([8]; semi-quantitative class): < 100 nM; % inhibiton at 1 uM CHK1 [4]: 6%; % inhibiton at 1 uM PAK1 [4]: 11%; % inhibiton at 1 uM PDK1 [4]: 3%; % inhibiton at 1 uM PLK1 [4]: 0%; % inhibiton at 1 uM SRC [4]: 24%
O[C@H]1CC[C@@H](Nc2nc3c(cc2Cl)nnn3-c2cccc(OC(F)(F)F)c2)CC1 [2-85] | 262 | – | – | – | – | – | – | – | – | – | – | – | – | – | – | – | – | – | – | – | IC50 [5, 9]: 74 nM; IC50 ([5]; semi-quantitative class): < 100 nM; IC50 [6]: 100 to 1000 nM; IC50 ([7]; semi-quantitative class): 100 to 1000 nM; IC50 ([8]; semi-quantitative class): 100 to 1000 nM
COc1cc(NCC2CCNCC2)nc2c1nnn2-c1cccc(OC(F)(F)F)c1 [2-92] | 136 | 96.65 | 1 | 4 | 0 | 1 | 0 | 0 | 5 | 0 | 0 | 2 | 2 | 1 | 0 | 0 | – | 6 | 0 | 0 | Synergy ([2]; A549, combined with GDC-0941): +++ (0.1 < CI < 0.3 (+++)); Synergy ([2]; DU145, combined with Taxotere): ++ (0.3 < CI < 0.7 (++)); EC50 ([2]; HTC116, colon carcinoma): 10000 nM; Synergy ([2]; HTC116, combined with PD-0325901): +++ (0.1 < CI < 0.3 (+++)); Synergy ([2]; HTC116, combined with lapatinib): +++ (0.1 < CI < 0.3 (+++)); EC50 ([2]; Homo sapiens, SK-MEL19, SKMel19, melanoma): 1000 nM; Synergy ([2]; MV4:11, combined with lapatinib): ++ (0.3 < CI < 0.7 (++)); Synergy ([2]; MiaPaca-2, combined with Gemcitabine): + (0.7 < CI < 1.2 (+)); Synergy ([2]; NCIH1975, combined with GDC-0941): ++ (0.3 < CI < 0.7 (++)); Synergy ([2]; PC3, combined with GDC-0941): + (0.7 < CI < 1.2 (+)); Synergy ([2]; SKMel19, combined with GDC-0879): +++ (0.1 < CI < 0.3 (+++)); Synergy ([2]; SKMel19, combined with GDC-0941): ++ (0.3 < CI < 0.7 (++)); % inhibiton at 1 uM CHK1 [4]: 0%; % inhibiton at 1 uM PAK1 [4]: 8%; % inhibiton at 1 uM PDK1 [4]: 0%; % inhibiton at 1 uM PLK1 [4]: 0%; % inhibiton at 1 uM SRC [4]: 8%

More lines, main results first:

EC50 [1] [nM] | Stability in HLM [3] [%] | % inhibiton at 1 uM B_RAF V600E [4] [%] | % inhibiton at 1 uM CK1 Alpha 1 [4] [%] | % inhibiton at 1 uM DYRK 1A [4] [%] | % inhibiton at 1 uM EGF_R [4] [%] | % inhibiton at 1 uM FAK [4] [%] | % inhibiton at 1 uM FGFR1 [4] [%] | % inhibiton at 1 uM IGF1_R [4] [%] | % inhibiton at 1 uM IKK BETA [4] [%] | % inhibiton at 1 uM INS_R [4] [%] | % inhibiton at 1 uM JAK2 [4] [%] | % inhibiton at 1 uM KIT [4] [%] | % inhibiton at 1 uM MEK1 [4] [%] | % inhibiton at 1 uM MET [4] [%] | % inhibiton at 1 uM PDGFR Alpha [4] [%] | % inhibiton at 1 uM RPS5 KA1 [4] [%] | % inhibiton at 1 uM SGK1 [4] [%] | % inhibiton at 1 uM AKT2 [4] [%] | % inhibiton at 1 uM CDK8 CYCC [4] [%] | SMILES | also measured
599 | 93.95 | 7 | 6 | 30 | 18 | 28 | 32 | 26 | 17 | 16 | 15 | 34 | 0 | 19 | 23 | 8 | 7 | – | – | FC(F)(F)Oc1cccc(-n2nnc3cc(Cl)c(NCC4CCNCC4)nc32)c1 [2-54] | EC50 ([2]; Homo sapiens, NCI-H23, NCIH23, non small cell lung carcinoma): 5000 nM
100 | 86.25 | 0 | 5 | 1 | 0 | 6 | 6 | 0 | 0 | 0 | 1 | 10 | 7 | 0 | 0 | 12 | 9 | 4 | 0 | COc1cc(NCC2CCNCC2)nc2c1nnn2-c1cccc(N(C)C)c1 [2-87] | % inhibiton at 1 uM CHK1 [4]: 3%; % inhibiton at 1 uM PAK1 [4]: 10%; % inhibiton at 1 uM PDK1 [4]: 9%; % inhibiton at 1 uM PLK1 [4]: 2%; % inhibiton at 1 uM SRC [4]: 0%
